In PMC10492782, “Exploiting the aggregation propensity of beta-lactamases to design inhibitors that induce enzyme misfolding” (Nature Communications, 2023):

Key:
Assay type in all cases: cell-based, Escherichia coli
[1] = test system: E. coli TEM-30; conditions: for Interoretation: E. coli TEM-30; for Interpretation: VITEK 2 AST card
Method: (§1) Beta-lactamase clinical samples were collected from University Hospitals Leuven and tested for ESBL production using the disk diffusion method. The beta-lactamase reference isolates were purchased from International Health Management Associates (IHMA). Bacterial strains were cultivated in Mueller–Hinton Broth (MHB, Difco) at 37 °C. Whenever required, growth media were supplemented with appropriate antibiotics to the medium or plates (kanamycin 30 µg/mL, L-arabinose 0.5 mg/mL, and IPTG […]). Escherichia coli BL21 (ThermoFisher Scientific, Belgium) was used for cloning and plasmid amplification. For the selection of antibiotic resistant colonies, E. coli carrying plasmids was grown in LB agar plates supplemented with the relevant antibiotic. Bacterial CFU counting was done on blood agar plates (BD Biosciences, Belgium) or MHA agar plates. Species identification and antibiograms for all clinical isolates were performed using MALDI-Tof and VITEK® 2 automated system (BioMérieux, France).
(§2) Khodaparast et al Supplementary data
(§3) study. […] Abbreviations: S,
(§4) susceptible; I, intermediate; R, resistant.

[2] = test system: E. coli TEM-16; test: VITEK 2 AST antimicrobial susceptibility testing; conditions: for Interoretation: E. coli TEM-16; for Interpretation: VITEK 2 AST card
Method: as §1, §2, §3, §4

[3] = test system: E. coli SHV1 (APHA); test: VITEK 2 AST antimicrobial susceptibility testing; conditions: for Interoretation: E. coli SHV154; for Interpretation: VITEK 2 AST card
Method: as §1, §2, §3, §4

[4] = test system: E. coli NDM5b; test: VITEK 2 AST antimicrobial susceptibility testing; conditions: for Interoretation: E. coli NDM5b; for Interpretation: VITEK 2 AST card
Method: as §1, §2, §3, §4

[5] = test system: E. coli TEM-148; test: VITEK 2 AST antimicrobial susceptibility testing; conditions: for Interoretation: E. coli TEM-148; for Interpretation: VITEK 2 AST card
Method: as §1, §2, §3, §4

[6] = test system: E. coli NDM5a; test: VITEK 2 AST antimicrobial susceptibility testing; conditions: for Interoretation: E. coli NDM5a; for Interpretation: VITEK 2 AST card
Method: as §1, §2, §3, §4

[7] = test system: E. coli TEM-104; test: VITEK 2 AST antimicrobial susceptibility testing; conditions: for Interoretation: E. coli TEM-104; for Interpretation: VITEK 2 AST card
Method: as §1, §2, §3, §4

[8] = test system: E. coli TEM-206; test: VITEK 2 AST antimicrobial susceptibility testing; conditions: for Interoretation: E. coli TEM-206; for Interpretation: VITEK 2 AST card
Method: as §1, §2, §3, §4

Row | Compound | Interoretation [1] | Interpretation [1] | Interoretation [2] | Interpretation [2] | Interoretation [3] | Interpretation [3] | Interoretation [4] | Interpretation [4] | Interoretation [5] | Interpretation [5] | Interoretation [6] | Interpretation [6] | Interoretation [7] | Interpretation [7] | Interoretation [8] | Interpretation [8]
1 | NCC[C@H](O)C(=O)N[C@@H]1C[C@H](N)[C@@H](O[C@H]2O[C@H](CN)[C@@H](O)[C@H](O)[C@H]2O)[C@H](O)[C@H]1O[C@H]1O[C@H](CO)[C@@H](O)[C@H](N)[C@H]1O [Amikacin] | S | S | S | S | S | S | S | S | S | S | S | S | S | S | S | –
2 | C=CC1=C(C(=O)O)N2C(=O)[C@@H](NC(=O)/C(=N\OCC(=O)O)c3csc(N)n3)[C@H]2SC1 [Cefixime] | *I | *I | R | R | R | R | R | R | *I | *I | R | R | S | S | R | R
3 | CO/N=C(\C(=O)N[C@@H]1C(=O)N2C(C(=O)O)=C(COC(C)=O)CS[C@H]12)c1csc(N)n1 [Cefotaxime] | R | R | R | R | R | R | R | R | R | R | R | R | S | S | R | R
4 | CO[C@@]1(NC(=O)Cc2cccs2)C(=O)N2C(C(=O)O)=C(COC(N)=O)CS[C@@H]21 [Cefoxitin] | S | S | S | S | R | R | R | R | S | S | R | R | S | S | S | S
5 | CC(C)(O/N=C(\C(=O)N[C@@H]1C(=O)N2C(C(=O)[O-])=C(C[n+]3ccccc3)CS[C@H]12)c1csc(N)n1)C(=O)O [Ceftazidime] | *I | *I | R | R | R | R | R | R | *I | *I | R | R | S | S | R | R
6 | CO/N=C(\C(=O)N[C@@H]1C(=O)N2C(C(=O)OC(C)OC(C)=O)=C(COC(N)=O)CS[C@H]12)c1ccco1 (stereo partly shown) [Cefuroxime Axetil] | R | R | R | R | R | R | R | R | R | R | R | R | S | S | R | R
7 | CO/N=C(\C(=O)N[C@@H]1C(=O)N2C(C(=O)O)=C(COC(N)=O)CS[C@H]12)c1ccco1 [Cefuroxime] | R | R | R | R | R | R | R | R | R | R | R | R | S | S | R | R
8 | CNC(C)C1CCC(N)C(OC2C(N)CC(N)C(OC3OCC(C)(O)C(NC)C3O)C2O)O1 (stereo not shown) [Gentamicin] | R | R | S | S | R | R | S | S | S | S | R | R | S | S | S | S
9 | C[C@H]1COc2c(N3CCN(C)CC3)c(F)cc3c(=O)c(C(=O)O)cn1c23 [Levofloxacin] | R | R | S | S | S | S | R | R | S | S | R | R | S | S | R | R
10 | C[C@@H](O)[C@H]1C(=O)N2C(C(=O)O)=C(S[C@@H]3CN[C@H](C(=O)N(C)C)C3)[C@H](C)[C@H]12 [Meropenem] | S | S | S | S | S | S | I | I | S | S | R | R | S | S | S | S
11 | O=C1CN(/N=C/c2ccc([N+](=O)[O-])o2)C(=O)N1 [Nitrofurantoin] | S | S | S | S | S | S | R | R | S | S | R | R | S | S | S | S
12 | CO[C@@]1(NC(=O)C(C(=O)O)c2ccsc2)C(=O)N2[C@@H](C(=O)O)C(C)(C)S[C@@H]21 (stereo partly shown) [Temocillin] | S | S | – | R | R | R | – | R | S | S | – | R | S | S | S | S
13 | CN(C)c1cc(NC(=O)CNC(C)(C)C)c(O)c2c1C[C@H]1C[C@H]3[C@H](N(C)C)C(O)=C(C(N)=O)C(=O)[C@@]3(O)C(O)=C1C2=O [Tigecycline] | I | I | S | S | S | S | S | S | S | S | S | S | S | S | S | S
14 | NC[C@H]1O[C@H](O[C@H]2[C@H](O)[C@@H](O[C@H]3O[C@H](CO)[C@@H](O)[C@H](N)[C@H]3O)[C@H](N)C[C@@H]2N)[C@H](N)C[C@@H]1O [Tobramycin] | *R | *R | S | S | *R | *R | S | S | S | S | R | R | S | S | S | –
15 | Amoxicillin + clavulanic acid | *R | *R | *R | *R | R | R | R | R | *R | *R | R | R | R | R | *R | *R
